Test results reported in patent publication US20120076899A1, “SHELF STABLE MONATIN SWEETENED BEVERAGE” (Cargill, Incorporated, priority 2009, published 2012).

Test: Presence of 3-methyl indole in stored monatin samples (GC, mass spectrometry, olfactometry)
Format: physicochemical
Conditions: not detected in the initial samples (Day 0) nor in samples stored in the dark
From the text: A compound described as having a musty flavor and odor during some of the organoleptic evaluations is described herein. […] The compound (3-methylindole; 3-MI; skatole) was identified using gas chromatography (GC), mass spectrometry, and olfactometry based on its retention time, mass spectra, and odor profile using the following method.
The volatile components from a sample were purged onto an absorbent and then thermally desorb them into the cold GC inlet for subsequent separation and identification by mass spectrometry. Simultaneously, the GC column effluent was split between the mass spec and olfactory port to determine the specific odor characteristics for compounds that contribute to the overall odor of the sample.
Each sample was extracted and analyzed in duplicate. […]
Each reconstructed total ion current chromatogram (RTICC) was manually reprocessed to 1) identify the compounds by using olfactory and mass spectral library matching. Compounds that were not detected by olfactory but which gave significant response were also identified, and 2) integrate the peaks to obtain areas for relative comparison to the other samples analyzed. […] Corrected areas for each compound were then converted to graphical form to more easily compare samples analyzed during the test.

Cc1c[nH]c2ccccc12 [3-methylindole]
detection of 3-methylindole in stored monatin samples: only found in samples exposed to light
